Measurements taken from patent US9920014B2, “Selective inhibition of bacterial topoisomerase I” (THE FLORIDA INTERNATIONAL BOARD OF TRUSTEES MODESTO A. …, priority 2013, dated 2018).
Values after ≈ are worked out from the molar mass of the structure shown. Where two headings read alike, the source gives them in different places.

Tests used:
[1] = biological target: E. coli DNA topoisomerase I (Escherichia coli, UniProt P06612); assay: Inhibition assay against E. coli DNA topoisomerase I (plasmid relaxation, agarose gel); assay type: biochemical; settings: 6 nM enzyme; for IC50: supercoiled pBAD-GFPuv, 15 min 37° C., average of at least three determinations, read-out: IC50 ecTopo I; for concentration needed to completely inhibit the activities of E. coli DNA topoisomerase I: gel titration (FIG. 3A, 3B)
Procedure: Inhibition Assays Against E. coli DNA Topoisomerase I:
Inhibition assays were used to determine the activities of the newly synthesized compounds against E. coli DNA topoisomerase I. The reaction mixture (30 μl) contained 20 mM Tris-HCl at pH 7.9, 50 mM KAc, 10 mM Mg(Ac)2, 1 mM DTT, 1 μg/mL BSA, 150 ng of the supercoiled plasmid pBAD-GFPuv, 6 nM of E. coli topoisomerase I, and one of the compounds at a specified concentration that ranges from 0.5 to 45 μM. All components were assembled on ice and incubated for 15 min at 37° C. After the incubation, the reactions were terminated by extraction with an equal volume of phenol. The topological state of the DNA samples was analyzed with 1% agarose gel electrophoresis in 1×TAE buffer, pH 7.8. Following electrophoresis, the agarose gel was stained with Ethidium Bromide, destained, and photographed under UV light. The intensity of DNA topoisomers was determined using KODAK 1D Image Analysis Software. The percentage of (−) supercoiled DNA was calculated from a comparison of the intensity of the (−) supercoiled band with the total intensity of all DNA topoisomers. The IC50 was calculated as the amount of the drug for which 50% of the DNA was still in a (−) supercoiled state.

DU 145 cell line = assay: Cytotoxicity, sulforhodamine B assay; assay type: cell-based; settings: for IC50: 48 h treatment, SRB stain, read-out: IC50 against DU-145
Procedure: Cytotoxicity Experiments:
The DU 145 cell line was cultured according to ATCC protocols. Cells were harvested using trypsin-EDTA solution and counted using trypan blue exclusion. Cells were seeded at a volume of 100 μl/well in the wells of tissue culture treated 96 well plates at a density of […] per well. Seeded 96 well plates were returned to incubator (37° C., 5% CO2) for twenty-four hours to resume exponential growth.
Cell lines were then treated with 100 μl of each test compound or cisplatin in triplicate. The final concentrations of each treatment were: 20, 10, 5, 2.5, 1.25, 0.625 and 0.0625 μM. Each plate also contained wells containing untreated cells and media only as controls. After receiving treatments, the 96 well plates were returned to incubator (37° C., 5% CO2) for forty-eight hours.
After forty-eight hours of treatment, the treated plates were fixed with trichloroacetic acid and stained with sulforhodamine B using a modified version of the protocol described by Skehan et al. In short, 50 μl of cold 80% TCA was added to each well, at a final concentration of 16% TCA, and plates were incubated at 4° C. for one hour. The media and TCA solution was discarded and plates were washed four times using room temperature tap water. Plates were allowed to air dry overnight. Plates were stained with the addition of 70 μl/well of […] SRB in 1% (v/v) acetic acid solution. Samples were stained for fifteen minutes and then stain was discarded. Plates were then washed four times with 1% (v/v) acetic acid solution to remove unbound stain and allowed to air dry overnight at room temperature. Finally, SRB stain was solubilized by adding 150 μl of 10 mM unbuffered Tris base to each well. The absorbance of each samples at 560 nm was recorded using a Tecan plate reader and the IC50 was determined using Origin 4.0 software. Each study was completed in duplicate.

[2] = tested on: Staphylococcus aureus ATCC 29213; assay: MIC by microbroth dilution, S. aureus 29213; assay type: cell-based; settings: for MIC: Staphylococcus aureus, ATCC29213, 24 h 37° C., read-out: MIC S1 = S. aureus 29213; for MIC S1 = S. aureus 29213: 24 h 37° C.
Procedure: (§1) Minimum Inhibitory Concentration (MIC) Determination:
(§2) Bacteria used in this study were Staphylococcus aureus ATCC 29213, Escherichia coli ATCC 25922, Escherichia coli K12, Staphylococcus aureus ATCC 33591, Pseudomonas aeruginosa ATCC 27853, and Enterococcus faecalis ATCC 29212. All compounds were tested by the microbroth dilution method following Clinical and Laboratory Standards Institute guidelines. Briefly, Mueller-Hinton broth (Difco Laboratories, Becton Dickinson) was inoculated with each organism and incubated at 37° C. with shaking to establish logarithmic growth. Following incubation, each culture was pelleted by centrifugation (3,500×g for 5 min) and resuspended in 0.85% sterile saline solution to an optical density at 625 nm of 0.1. Samples were tested in triplicate using 96 well microplates (Corning Costar Corp. Cambridge, Mass.), yielding final bacterial concentrations of 5×10^5 CFU/mL, and incubated for 24 h at 37° C. Following incubation, optical densities of each well were determined with a μQuant microplate spectrophotometer (BioTek Instruments, Inc., Winooski, Vt.) at 625 nm.

[3] = tested on: Staphylococcus aureus ATCC 33591; assay: MIC by microbroth dilution, S. aureus 33591; assay type: cell-based; settings: for MIC: Staphylococcus aureus, ATCC33591, 24 h 37° C., read-out: MIC S2 = S. aureus 33591; for MIC S2 = S. aureus 33591: 24 h 37° C.
Procedure: as §1, §2

[4] = tested on: Escherichia coli ATCC 25922; assay: MIC by microbroth dilution, E. coli 25922; assay type: cell-based; settings: for MIC: Escherichia coli, ATCC25922, 24 h 37° C., read-out: MIC S3 = E. coli 25922; for MIC S3 = E. coli 25922: 24 h 37° C.
Procedure: as §1, §2

[5] = tested on: Pseudomonas aeruginosa ATCC 27853; assay: MIC by microbroth dilution, P. aeruginosa 27853; assay type: cell-based; settings: for MIC: Pseudomonas aeruginosa, ATCC27853, 24 h 37° C., read-out: MIC S4 = P. aeruginosa 27853; for MIC S4 = P. aeruginosa 27853: 24 h 37° C.
Procedure: as §1, §2

[6] = biological target: human DNA topoisomerase II (Homo sapiens, UniProt P11388); assay: Inhibition assay against human DNA topoisomerase II (plasmid relaxation, agarose gel); assay type: biochemical; settings: for inhibition of human DNA topoisomerase II activities at 50 μM: 50 μM compound; for IC50: 4 units enzyme, supercoiled pBAD-GFPuv, 30 min 37° C., read-out: IC50 hTopo II
Procedure: Inhibition Assays Against Human DNA Topoisomerase II:
The reaction mixture (25 μl) contained 20 mM Tris-HCl at pH 7.9, 50 mM KAc, 10 mM Mg(Ac)2, 1 mM DTT, 1 μg/mL BSA, 200 ng supercoiled plasmid pBAD-GFPuv, 4 units of Human topoisomerase II, and one of the compounds at a final concentration that ranges from 5 to 50 μM. All components were assembled on ice and incubated for 30 minutes at 37° C. After the incubation, the reactions were terminated by extraction with an equal volume of phenol. The topological state of the DNA samples was analyzed with 1% agarose gel electrophoresis in 1×TAE buffer, pH 7.8. Following electrophoresis, the agarose gel was stained with Ethidium Bromide, destained, and photographed under UV light. The intensity of DNA topoisomers was determined using KODAK 1D Image Analysis Software. The percentage of (−) supercoiled DNA was calculated from a comparison of the intensity of the (−) supercoiled band with the total intensity of all DNA topoisomers. The IC50 was calculated as the amount of the drug for which 50% of the DNA was in a (−) supercoiled state.

human DNA topoisomerase II, sequence (P11388 whole entry): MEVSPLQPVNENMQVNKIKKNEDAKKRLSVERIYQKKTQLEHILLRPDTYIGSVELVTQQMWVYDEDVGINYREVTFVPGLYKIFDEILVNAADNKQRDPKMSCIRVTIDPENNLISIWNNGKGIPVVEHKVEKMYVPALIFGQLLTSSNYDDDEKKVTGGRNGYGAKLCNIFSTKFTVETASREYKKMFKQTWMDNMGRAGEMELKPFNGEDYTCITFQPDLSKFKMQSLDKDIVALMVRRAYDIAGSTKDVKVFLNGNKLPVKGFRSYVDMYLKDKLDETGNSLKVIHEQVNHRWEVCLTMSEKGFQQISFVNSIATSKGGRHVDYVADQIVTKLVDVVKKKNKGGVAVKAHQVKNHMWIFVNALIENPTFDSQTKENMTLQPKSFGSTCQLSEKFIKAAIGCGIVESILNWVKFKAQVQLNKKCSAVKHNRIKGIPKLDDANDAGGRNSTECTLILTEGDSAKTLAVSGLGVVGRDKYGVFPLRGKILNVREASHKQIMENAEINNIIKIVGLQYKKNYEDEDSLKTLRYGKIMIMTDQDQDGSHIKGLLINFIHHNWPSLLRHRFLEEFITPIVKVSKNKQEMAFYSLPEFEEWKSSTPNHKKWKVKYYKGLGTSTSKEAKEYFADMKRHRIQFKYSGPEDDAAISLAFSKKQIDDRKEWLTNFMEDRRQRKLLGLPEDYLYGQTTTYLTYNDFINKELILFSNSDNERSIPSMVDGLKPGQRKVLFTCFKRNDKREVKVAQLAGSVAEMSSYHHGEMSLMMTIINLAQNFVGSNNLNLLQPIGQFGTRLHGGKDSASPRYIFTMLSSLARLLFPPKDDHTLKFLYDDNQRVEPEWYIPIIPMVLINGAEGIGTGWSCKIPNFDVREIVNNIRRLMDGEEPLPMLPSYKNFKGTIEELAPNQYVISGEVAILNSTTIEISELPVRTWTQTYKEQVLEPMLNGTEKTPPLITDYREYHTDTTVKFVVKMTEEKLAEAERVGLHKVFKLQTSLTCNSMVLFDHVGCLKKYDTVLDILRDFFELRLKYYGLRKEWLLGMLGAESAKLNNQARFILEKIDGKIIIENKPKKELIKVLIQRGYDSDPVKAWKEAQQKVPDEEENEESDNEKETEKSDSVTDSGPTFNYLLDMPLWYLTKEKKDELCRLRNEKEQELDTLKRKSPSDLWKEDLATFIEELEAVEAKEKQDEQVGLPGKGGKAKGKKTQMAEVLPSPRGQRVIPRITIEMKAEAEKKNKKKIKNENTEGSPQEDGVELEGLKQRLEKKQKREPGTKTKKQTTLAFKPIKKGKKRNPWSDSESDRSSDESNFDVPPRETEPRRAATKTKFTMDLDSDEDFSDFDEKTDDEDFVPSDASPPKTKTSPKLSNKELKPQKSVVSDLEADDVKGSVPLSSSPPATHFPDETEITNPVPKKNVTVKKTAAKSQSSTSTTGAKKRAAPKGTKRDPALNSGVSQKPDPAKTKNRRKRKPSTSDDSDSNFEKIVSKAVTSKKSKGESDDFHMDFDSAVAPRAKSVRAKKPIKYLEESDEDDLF
E. coli DNA topoisomerase I, sequence (P06612 whole entry): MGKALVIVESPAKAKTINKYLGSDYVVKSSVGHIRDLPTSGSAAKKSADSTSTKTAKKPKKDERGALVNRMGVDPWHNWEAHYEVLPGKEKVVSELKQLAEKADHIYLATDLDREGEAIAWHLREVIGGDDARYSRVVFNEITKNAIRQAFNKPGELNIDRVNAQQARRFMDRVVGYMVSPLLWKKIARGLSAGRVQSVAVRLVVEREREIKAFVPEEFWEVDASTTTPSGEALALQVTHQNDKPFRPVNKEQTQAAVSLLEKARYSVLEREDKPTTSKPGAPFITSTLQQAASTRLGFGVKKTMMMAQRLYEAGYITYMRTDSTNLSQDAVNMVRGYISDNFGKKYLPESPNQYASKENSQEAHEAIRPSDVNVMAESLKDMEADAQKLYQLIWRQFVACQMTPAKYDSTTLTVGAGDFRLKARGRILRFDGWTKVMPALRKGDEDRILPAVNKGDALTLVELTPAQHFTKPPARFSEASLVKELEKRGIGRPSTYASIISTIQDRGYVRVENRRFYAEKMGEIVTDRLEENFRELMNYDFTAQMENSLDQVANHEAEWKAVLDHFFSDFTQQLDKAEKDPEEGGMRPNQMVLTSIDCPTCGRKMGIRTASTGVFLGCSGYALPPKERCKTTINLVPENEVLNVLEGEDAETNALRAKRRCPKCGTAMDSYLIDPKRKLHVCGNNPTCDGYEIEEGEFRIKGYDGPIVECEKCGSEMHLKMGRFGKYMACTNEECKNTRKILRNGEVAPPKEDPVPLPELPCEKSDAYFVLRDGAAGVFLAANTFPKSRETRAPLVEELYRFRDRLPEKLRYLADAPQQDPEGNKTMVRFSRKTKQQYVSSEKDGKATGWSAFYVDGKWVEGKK

C#CCCCCCCCCCOc1ccc(-c2nc3ccc(-c4nc5ccc(N6CCN(C)CC6)cc5[nH]4)cc3[nH]2)cc1 [DPA 153, 6-(4-methylpiperazin-1-yl)-2′-(4-(undec-10-ynyloxy)phenyl)-1H,3′H-2,5′-bibenzo[d]imidazole]
IC50 [1]: 2.47 ± 0.06 µM
IC50 (DU 145 cell line; Homo sapiens, DU-145): > 10 µM
melting point: 170 to 175 °C

C#CCOCCCCOc1ccc(-c2nc3ccc(-c4nc5ccc(N6CCN(C)CC6)cc5[nH]4)cc3[nH]2)cc1 [DPA 154, 6-(4-methylpiperazin-1-yl)-2′-(4-(4-(prop-2-ynyloxy)butoxy)phenyl)-1H,3′H-2,5′-bibenzo[d]imidazole]
IC50 [1]: 6.63 ± 0.47 µM
IC50 (DU 145 cell line; Homo sapiens, DU-145): 2.79 ± 0.13 µM
MIC [2]: 2 to 4 µg/mL (≈ 3.74 to 7.48 µM)
MIC [3]: 2 to 4 µg/mL (≈ 3.74 to 7.48 µM)
MIC [4]: 8 to 16 µg/mL (≈ 15 to 29.9 µM)
MIC [5]: 16 µg/mL (≈ 29.9 µM)
melting point: 150 to 155 °C

C#CCOc1ccc(-c2nc3ccc(-c4nc5ccc(N6CCN(C)CC6)cc5[nH]4)cc3[nH]2)cc1 [DPA 151, 6-(4-methylpiperazin-1-yl)-2′-(4-(prop-2-ynyloxy)phenyl)-1H,3′H-2,5′-bibenzo[d]imidazole]
concentration needed to completely inhibit the activities of E. coli DNA topoisomerase I [1]: approximately 5 μM
IC50 [1]: 5.5 ± 0.5 µM
inhibition of human DNA topoisomerase II activities at 50 μM [6]: partially inhibit
IC50 [6]: 51.6 ± 2.5 µM
IC50 (DU 145 cell line; Homo sapiens, DU-145): 3.24 ± 0.71 µM
MIC [2]: 2 to 4 µg/mL (≈ 4.32 to 8.65 µM)
MIC [3]: 2 to 4 µg/mL (≈ 4.32 to 8.65 µM)
MIC [4]: 8 µg/mL (≈ 17.3 µM)

CN1CCN(c2ccc3[nH]c(-c4ccc5[nH]c(-c6ccc(O)cc6)nc5c4)nc3c2)CC1 [Hoechst 33258, reference compound]
concentration needed to completely inhibit the activities of E. coli DNA topoisomerase I [1]: approximately 20 μM
IC50 [1]: 19.5 ± 1.32 µM
inhibition of human DNA topoisomerase II activities at 50 μM [6]: completely inhibit
IC50 [6]: 28.9 ± 4.45 µM
MIC S1 = S. aureus 29213 [2]: ≥32^ ^ μg/ml
MIC S2 = S. aureus 33591 [3]: 16 to 32 µg/mL
MIC S3 = E. coli 25922 [4]: 16 µg/mL (≈ 37.7 µM)
MIC S4 = P. aeruginosa 27853 [5]: 16 µg/mL (≈ 37.7 µM)

C#CCCCCOc1ccc(-c2nc3ccc(-c4nc5ccc(N6CCN(C)CC6)cc5[nH]4)cc3[nH]2)cc1 [DPA 152, 2′-(4-(hex-5-ynyloxy)phenyl)-6-(4-methylpiperazin-1-yl)-1H,3′H-2,5′-bibenzo[d]imidazole]
IC50 [1]: 4.57 ± 0.81 µM
cytotoxicity relative to Hoechst 33242 (DU 145 cell line; DU-145, 48 h): nearly twice as toxic as Hoechst 33242
IC50 (DU 145 cell line; Homo sapiens, DU-145): 2.12 ± 0.46 µM
MIC [2]: 2 to 4 µg/mL (≈ 3.96 to 7.93 µM)
MIC [3]: 2 to 4 µg/mL (≈ 3.96 to 7.93 µM)
MIC [4]: 8 to 16 µg/mL (≈ 15.9 to 31.7 µM)
MIC [5]: 16 µg/mL (≈ 31.7 µM)
melting point: 210 to 220 °C

CCOc1ccc(-c2nc3ccc(-c4nc5ccc(N6CCN(C)CC6)cc5[nH]4)cc3[nH]2)cc1 [Hoechst 33342, reference compound]
IC50 [1]: 29.8 ± 2.75 µM
IC50 (DU 145 cell line): 4.25 µM
MIC S1 = S. aureus 29213 [2]: 2 to 4 µg/mL
MIC S2 = S. aureus 33591 [3]: 2 to 4 µg/mL
MIC S3 = E. coli 25922 [4]: 8 to 16 µg/mL
MIC S4 = P. aeruginosa 27853 [5]: 16 µg/mL (≈ 35.4 µM)
